Measurements published in article PMC6556873, “Rapid Covalent-Probe Discovery by Electrophile-Fragment Screening” (Journal of the American Chemical Society, 2019).
Read-outs that look alike come from different tables or passages of the source.

Experiments:
in vitro [1] = assay: in vitro; set-up: species or system HB2, CCD841; conditions: human, hek293 cells
in vitro [2] = assay: in vitro; set-up: species or system CCD841, HEK293; conditions: human, hb2 cells, read-out: HB-2 Cells Viability (%)
OTUB2 (OTUB2A) = molecular target: T1, OTUB2 (OTUB2A) (Homo sapiens, UniProt Q96DC9); set-up: Intact protein LC/MS covalent labelling, fragments in pools of five, 200 uM each, 4 °C; conditions: 24 h, 4 °C, pool of five; 200 µM; covalent
T1 construct: full length residues 1-234, E. coli BL21(DE3)-R3, His tag removed by TEV, construct 27312 Da
T1 sequence (Q96DC9 1-234): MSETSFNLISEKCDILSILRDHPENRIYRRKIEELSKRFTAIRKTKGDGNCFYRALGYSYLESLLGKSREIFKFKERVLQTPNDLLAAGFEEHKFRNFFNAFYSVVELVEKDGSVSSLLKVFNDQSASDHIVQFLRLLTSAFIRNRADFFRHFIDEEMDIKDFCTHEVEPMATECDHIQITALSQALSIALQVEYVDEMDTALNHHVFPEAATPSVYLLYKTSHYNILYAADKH

NNMT (hNNMT) = molecular target: T2, NNMT (hNNMT) (Homo sapiens, UniProt P40261); set-up: Intact protein LC/MS covalent labelling, fragments in pools of five, 200 uM each, 4 °C; conditions: 24 h, 4 °C, pool of five; 200 µM; covalent
T2 construct: wild type, N-terminal His6 tag kept (no cleavage described), E. coli, construct 31248 Da
T2 sequence (P40261 1-264): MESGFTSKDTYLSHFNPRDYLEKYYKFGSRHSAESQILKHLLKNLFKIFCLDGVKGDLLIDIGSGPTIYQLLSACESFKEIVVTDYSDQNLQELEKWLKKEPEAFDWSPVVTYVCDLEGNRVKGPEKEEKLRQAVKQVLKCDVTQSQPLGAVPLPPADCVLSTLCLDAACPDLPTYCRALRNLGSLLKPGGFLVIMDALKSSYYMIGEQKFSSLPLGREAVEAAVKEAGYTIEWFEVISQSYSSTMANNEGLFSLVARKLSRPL

BSA = molecular target: T3, BSA (Bos taurus, UniProt P02769); set-up: Intact protein LC/MS covalent labelling, fragments in pools of five, 200 uM each, 4 °C; conditions: 24 h, 4 °C, pool of five; 200 µM; covalent
T3 construct: gene ALB
T3 sequence (P02769 whole entry, the tested form may be a part): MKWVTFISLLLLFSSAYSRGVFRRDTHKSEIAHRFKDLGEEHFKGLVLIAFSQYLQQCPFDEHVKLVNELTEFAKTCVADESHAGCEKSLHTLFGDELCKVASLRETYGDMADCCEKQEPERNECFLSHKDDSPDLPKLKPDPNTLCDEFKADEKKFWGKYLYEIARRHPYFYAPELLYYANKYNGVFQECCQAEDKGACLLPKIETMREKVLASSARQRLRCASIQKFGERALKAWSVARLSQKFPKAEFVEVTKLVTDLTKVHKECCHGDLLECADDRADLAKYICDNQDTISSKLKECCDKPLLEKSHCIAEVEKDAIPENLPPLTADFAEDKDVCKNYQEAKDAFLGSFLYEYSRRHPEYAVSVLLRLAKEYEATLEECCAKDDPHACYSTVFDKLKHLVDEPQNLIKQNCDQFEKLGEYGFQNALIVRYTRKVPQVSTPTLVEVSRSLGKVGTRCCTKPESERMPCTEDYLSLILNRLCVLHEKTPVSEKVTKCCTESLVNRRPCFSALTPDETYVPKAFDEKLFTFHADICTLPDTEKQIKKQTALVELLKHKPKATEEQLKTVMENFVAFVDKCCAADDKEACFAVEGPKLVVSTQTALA

NUDT7 = molecular target: T4, NUDT7 (Homo sapiens, UniProt P0C024); set-up: Intact protein LC/MS covalent labelling, fragments in pools of five, 200 uM each, 4 °C; conditions: 24 h, 4 °C, pool of five; 200 µM; covalent
T4 construct: residues 14-235, E. coli, pNIC28-Bsa4, N-terminal His6 tag removed by TEV, construct 26672 Da
T4 sequence (P0C024 14-235): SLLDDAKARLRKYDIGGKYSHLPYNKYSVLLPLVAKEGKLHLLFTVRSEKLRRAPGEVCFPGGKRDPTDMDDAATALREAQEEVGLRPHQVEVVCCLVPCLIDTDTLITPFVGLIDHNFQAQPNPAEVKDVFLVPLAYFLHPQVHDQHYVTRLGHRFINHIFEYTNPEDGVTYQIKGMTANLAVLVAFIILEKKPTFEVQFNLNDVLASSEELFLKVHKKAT

PCAF = molecular target: T5, PCAF (Homo sapiens, UniProt Q92831); set-up: Intact protein LC/MS covalent labelling, fragments in pools of five, 200 uM each, 4 °C; conditions: 24 h, 4 °C, pool of five; 200 µM; covalent
T5 construct: gene KAT2B
T5 sequence (Q92831 whole entry, the tested form may be a part): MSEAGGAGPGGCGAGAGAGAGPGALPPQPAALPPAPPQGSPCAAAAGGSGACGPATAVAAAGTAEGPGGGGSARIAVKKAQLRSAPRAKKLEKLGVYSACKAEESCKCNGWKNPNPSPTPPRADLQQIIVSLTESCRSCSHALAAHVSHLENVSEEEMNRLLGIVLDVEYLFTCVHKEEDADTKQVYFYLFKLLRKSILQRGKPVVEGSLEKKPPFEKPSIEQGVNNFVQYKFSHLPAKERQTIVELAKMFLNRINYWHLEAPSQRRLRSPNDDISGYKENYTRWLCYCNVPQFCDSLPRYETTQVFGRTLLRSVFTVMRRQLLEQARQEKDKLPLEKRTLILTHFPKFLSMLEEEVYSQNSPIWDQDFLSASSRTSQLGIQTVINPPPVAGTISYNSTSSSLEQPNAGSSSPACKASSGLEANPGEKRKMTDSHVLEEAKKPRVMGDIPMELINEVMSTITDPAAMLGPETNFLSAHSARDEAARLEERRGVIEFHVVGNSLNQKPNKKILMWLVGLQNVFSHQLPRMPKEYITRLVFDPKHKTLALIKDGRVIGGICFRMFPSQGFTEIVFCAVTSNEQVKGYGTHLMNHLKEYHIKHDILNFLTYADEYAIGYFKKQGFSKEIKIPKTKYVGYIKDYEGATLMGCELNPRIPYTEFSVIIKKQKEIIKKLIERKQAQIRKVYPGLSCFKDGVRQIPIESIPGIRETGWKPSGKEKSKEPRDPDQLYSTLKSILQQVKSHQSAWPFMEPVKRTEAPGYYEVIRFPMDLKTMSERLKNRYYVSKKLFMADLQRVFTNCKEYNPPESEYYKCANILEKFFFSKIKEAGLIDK

in vitro [3] = assay: in vitro; set-up: species or system HB2, HEK293; conditions: human, ccd841 cells

SMILES | viability at 48 h, 10 µM (in vitro [1]) [%] | viability at 48 h, 10 µM (in vitro [2]) [%] | OTUB2 (OTUB2 (OTUB2A)) | NNMT (NNMT (hNNMT)) | BSA (BSA) | NUDT7 (NUDT7) | PCAF (PCAF) | viability at 48 h, 10 µM (in vitro [3]) [%]
O=C(CCl)NC(=O)NCC1COc2ccccc2O1 (centres unmarked) [PCM-0102092] | 7.6 | 49 | 0 | 0 | 0 | 0 | 0 | 33.4
Cc1csc(CC(=O)NNC(=O)CCl)n1.Cl [PCM-0102095] | 81.9 | 93.3 | 0.51 | 0 | 0 | 0 | 0 | 79
O=C(CCl)NC(=O)NC1CCS(=O)(=O)C1 (centres unmarked) [PCM-0102100] | 99.5 | 101 | 0.09 | 0 | 0 | 0 | 0 | 106
CNC(=O)c1cccc(NC(=O)CCl)c1 [PCM-0102113] | 1.7 | 25.2 | 0 | 0 | 0 | 0 | 0 | 55
O=C(CCl)NC12CC3CC(CC(C3)C1)C2 [PCM-0102118] | 71.1 | 83 | 0 | 0.23 | 0 | 0 | 0 | 76.1
Cc1ccc(NC(=O)NC(=O)CCl)cc1C [PCM-0102119] | 63.3 | 48.8 | 0 | 0.57 | 0 | 0.09 | 0 | 63.5
CC(NC(=O)CCl)c1ccccc1 (centres unmarked) [PCM-0102128] | 84.3 | 84.4 | 0.42 | 0 | 0 | 0.13 | 0 | 85.5
O=C(CCl)Nc1ccccc1N1CCCC1 [PCM-0102135] | 91.3 | 98.5 | 0 | 0 | 0 | 0 | 0 | 95
O=C(CCl)NC1CCS(=O)(=O)C1 (centres unmarked) [PCM-0102138] | 113 | 92.6 | 0 | 0 | 0 | 0 | 0 | 84.2
O=C1CN(C(=O)CCl)C2(CCCCC2)C(=O)N1 [PCM-0102139] | 96.3 | 98.9 | 0.05 | 0 | – | 0.22 | 0 | 95.8
C=CC(=O)Nc1ccc(N2CCCC2=O)cc1 [PCM-0102145] | 91.4 | 101 | 0 | 0.14 | 0 | 0 | 0 | 125
N#CCc1ccc(NC(=O)CCl)cc1 [PCM-0102148] | 2.1 | 11.8 | 0.43 | 0.27 | 0 | 0.1 | 0 | 32.2
O=C(CCl)NCc1ccccc1F [PCM-0102149] | 71.3 | 86.4 | 0.62 | 0 | 0 | 0 | 0 | 63.7
O=C(CCl)Nc1ccccc1Cl [PCM-0102152] | 76.1 | 75.4 | 0.2 | 0 | 0 | 0 | 0 | 78.5
COc1ccc(NC(=O)CCl)cc1 [PCM-0102156] | 2.4 | 24.7 | 0.52 | 0.25 | 0 | 0 | 0 | 42.7
O=C(CCl)Nc1ccccc1F [PCM-0102158] | 34.2 | 50 | 0.51 | 0 | 0 | 0 | 0 | 59
CCc1nnc(NC(=O)CCl)s1 [PCM-0102166] | 95.8 | 94.5 | 0 | 0.42 | 0 | 0.21 | 0 | 92.5
Cl.O=C(CCl)N1CCN(Cc2ccc(Br)s2)CC1 [PCM-0102169] | 8.6 | 8.8 | 0 | 0 | 0 | 0 | 0 | 33
O=C(CCl)Nc1ccccc1C(F)(F)F [PCM-0102170] | 72.6 | 96.7 | 0 | 0.12 | 0 | 0 | 0 | 99.1
O=C(CCl)Nc1cccc(N2CCCC2=O)c1 [PCM-0102179] | 1.8 | 20.8 | 0.47 | 0.23 | 0 | 0.12 | 0 | 52.4
O=C(CCl)Nc1c(F)cc(F)cc1Br [PCM-0102189] | 72.4 | 79.5 | 0 | 0.11 | 0 | 0.1 | 0 | 59.6
C=CC(=O)N1CCCC1c1cccc2c1OCCO2 (centres unmarked) [PCM-0102489] | 89.9 | 96.3 | 0 | 0 | – | 0 | 0 | 99.1
O=C(CCl)N1CCC(Cc2ccccc2)CC1 [PCM-0102492] | – | – | 0.18 | 0.51 | 0 | 0.18 | 0 | –
C=CC(=O)N1CCC(c2nc3cccc(C)c3o2)CC1 [PCM-0102530] | 94 | 108 | 0 | 0 | – | 0 | 0 | 101
C=CC(=O)Nc1cccc(OC)c1 [PCM-0102800] | – | – | 0 | 0 | 0 | 0 | 0 | –
O=C(CCl)Nc1ccc2c(c1)NC(=O)CO2 [PCM-0102890] | – | – | 0.32 | 0.22 | 0 | 0.08 | 0 | –
C=CC(=O)Nc1cccc(F)c1 [PCM-0102922] | – | – | 0 | 0 | 0.19 | 0 | 0 | –
N#Cc1ccc(CNC(=O)CCl)cc1 [PCM-0102946] | 88.1 | 85 | 0.35 | 0.23 | – | 0 | 0 | 74.8
O=C(CCl)N1CCN(C(=O)C2CC2)CC1 [PCM-0102970] | 66.6 | 83.8 | 0 | 0 | – | 0.07 | 0 | 72.5
